Experimental data: patent EP0908457B1, “3-(1,2-benzisothiazol- and isoxazol-5-Y1)-2,4(1H,3H)-pyrimidinedione or thione and 3-(1,2-benzisothiazol- and isoxazol-5-y1)-4(3H)-pyrimidinone or thione herbicidal agents” (BASF AKTIENGESELLSCHAFT, priority 1997, dated 1999)

How the values were obtained:
[1] = system: Echinochloa oryzoides (Ard.) Fritsch.; experiment: Preemergence weed control under flooded paddy conditions, ECHORC (Watergrass (Calif.)); type: in vivo; conditions: preemergence, flooded paddy, rated three to four weeks after treatment; also: meaning of each grade not given here
Cyperus iria [2] = experiment: Preemergence weed control under flooded paddy conditions, CYPIR (Rice Flatsedge); type: in vivo; conditions: preemergence, flooded paddy, rated three to four weeks after treatment; also: meaning of each grade not given here
[3] = system: Cyperus serotinus, Rottb.; experiment: Preemergence weed control under flooded paddy conditions, CYPSE (Flatsedge); type: in vivo; conditions: preemergence, rated three to four weeks after treatment; also: meaning of each grade not given here
[4] = system: Monochoria vaginalis, Presl.; experiment: Preemergence weed control under flooded paddy conditions, MOOVA (Monochoria); type: in vivo; conditions: preemergence, flooded paddy, rated three to four weeks after treatment; also: meaning of each grade not given here
Sagittaria pygmaea, L. [5] = experiment: Preemergence weed control under flooded paddy conditions, SAGPY (Arrowhead (Pygmaea)); type: in vivo; conditions: preemergence, flooded paddy, rated three to four weeks after treatment; also: meaning of each grade not given here
[6] = system: Echinochloa oryzoides (Ard.) Fritsch.; experiment: Postemergence weed control under flooded paddy conditions, ECHORC (Watergrass (Calif.)); type: in vivo; conditions: rated three to four weeks after treatment
Cyperus iria [7] = experiment: Postemergence weed control under flooded paddy conditions, CYPIR (Rice Flatsedge); type: in vivo; conditions: rated three to four weeks after treatment
[8] = system: Cyperus serotinus, Rottb.; experiment: Postemergence weed control under flooded paddy conditions, CYPSE (Flatsedge); type: in vivo; conditions: rated three to four weeks after treatment
[9] = system: Monochoria vaginalis, Presl.; experiment: Postemergence weed control under flooded paddy conditions, MOOVA (Monochoria); type: in vivo; conditions: rated three to four weeks after treatment
Sagittaria pygmaea, L. [10] = experiment: Postemergence weed control under flooded paddy conditions, SAGPY (Arrowhead (Pygmaea)); type: in vivo; conditions: rated three to four weeks after treatment
[11] = system: Oryza sativa, (L.) Tebonnet; experiment: Rice tolerance to post-transplant applications under flooded paddy conditions (Example 187), ORYSAT (Rice, Tebonnet); conditions: rated three to four weeks after treatment
[12] = system: Oryza sativa, (L.) Tebonnet; experiment: Rice tolerance to post-transplant applications under flooded paddy conditions (Example 188), ORYSAT (Rice, Tebonnet); conditions: rated three to four weeks after treatment

COC(=O)COc1ccc(C)cc1-c1nsc2ccc(-n3c(=O)cc(C(F)(F)F)n(C)c3=O)cc12 [Example 2, Methyl {{2-{5-[3,6-dihydro-3-methyl-4-(trifluoromethyl)-2,6-dioxo-1(2H)-pyrimidinyl]-1,2-benzisothiazol-3-yl}-p-tolyl}oxy}acetate]
herbicidal effect rating, ECHORC ([1]; 0.0313 kg/ha): 9.0 | herbicidal effect rating, ECHORC ([1]; 0.0625 kg/ha): 9.0 | herbicidal effect rating, ECHORC ([1]; 0.1250 kg/ha): 9.0 | herbicidal effect rating, ECHORC ([1]; 0.2500 kg/ha): 9.0 | herbicidal effect rating, ECHORC ([1]; 0.5000 kg/ha): 9.0 | herbicidal effect rating, CYPIR (Cyperus iria [2]; 0.0313 kg/ha): 8.0 | herbicidal effect rating, CYPIR (Cyperus iria [2]; 0.0625 kg/ha): 9.0 | herbicidal effect rating, CYPIR (Cyperus iria [2]; 0.1250 kg/ha): 9.0 | herbicidal effect rating, CYPIR (Cyperus iria [2]; 0.2500 kg/ha): 9.0 | herbicidal effect rating, CYPIR (Cyperus iria [2]; 0.5000 kg/ha): 9.0 | herbicidal effect rating, CYPSE ([3]; 0.0313 kg/ha): 0.0 | herbicidal effect rating, CYPSE ([3]; 0.0625 kg/ha): 0.0 | herbicidal effect rating, CYPSE ([3]; 0.1250 kg/ha): 0.0 | herbicidal effect rating, CYPSE ([3]; 0.2500 kg/ha): 0.0 | herbicidal effect rating, CYPSE ([3]; 0.5000 kg/ha): 0.0 | herbicidal effect rating, MOOVA ([4]; 0.0313 kg/ha): 7.0 | herbicidal effect rating, MOOVA ([4]; 0.0625 kg/ha): 9.0 | herbicidal effect rating, MOOVA ([4]; 0.1250 kg/ha): 9.0 | herbicidal effect rating, MOOVA ([4]; 0.2500 kg/ha): 9.0 | herbicidal effect rating, MOOVA ([4]; 0.5000 kg/ha): 9.0 | herbicidal effect rating, SAGPY (Sagittaria pygmaea, L. [5]; 0.0313 kg/ha): 0.0 | herbicidal effect rating, SAGPY (Sagittaria pygmaea, L. [5]; 0.0625 kg/ha): 0.0 | herbicidal effect rating, SAGPY (Sagittaria pygmaea, L. [5]; 0.1250 kg/ha): 2.0 | herbicidal effect rating, SAGPY (Sagittaria pygmaea, L. [5]; 0.2500 kg/ha): 4.0 | herbicidal effect rating, SAGPY (Sagittaria pygmaea, L. [5]; 0.5000 kg/ha): 9.0 | herbicidal effect rating, ECHORC ([6]; Rate 0.0313 kg/ha): 4.0 | herbicidal effect rating, ECHORC ([6]; Rate 0.0625 kg/ha): 4.0 | herbicidal effect rating, ECHORC ([6]; Rate 0.1250 kg/ha): 7.0 | herbicidal effect rating, ECHORC ([6]; Rate 0.2500 kg/ha): 9.0 | herbicidal effect rating, ECHORC ([6]; Rate 0.5000 kg/ha): 9.0 | herbicidal effect rating, CYPIR (Cyperus iria [7]; Rate 0.0313 kg/ha): 9.0 | herbicidal effect rating, CYPIR (Cyperus iria [7]; Rate 0.0625 kg/ha): 9.0 | herbicidal effect rating, CYPIR (Cyperus iria [7]; Rate 0.1250 kg/ha): 9.0 | herbicidal effect rating, CYPIR (Cyperus iria [7]; Rate 0.2500 kg/ha): 9.0 | herbicidal effect rating, CYPIR (Cyperus iria [7]; Rate 0.5000 kg/ha): 9.0 | herbicidal effect rating, CYPSE ([8]; Rate 0.0313 kg/ha): 0.0 | herbicidal effect rating, CYPSE ([8]; Rate 0.0625 kg/ha): 0.0 | herbicidal effect rating, CYPSE ([8]; Rate 0.1250 kg/ha): 0.0 | herbicidal effect rating, CYPSE ([8]; Rate 0.2500 kg/ha): 0.0 | herbicidal effect rating, CYPSE ([8]; Rate 0.5000 kg/ha): 0.0 | herbicidal effect rating, MOOVA ([9]; Rate 0.0313 kg/ha): 9.0 | herbicidal effect rating, MOOVA ([9]; Rate 0.0625 kg/ha): 9.0 | herbicidal effect rating, MOOVA ([9]; Rate 0.1250 kg/ha): 9.0 | herbicidal effect rating, MOOVA ([9]; Rate 0.2500 kg/ha): 9.0 | herbicidal effect rating, MOOVA ([9]; Rate 0.5000 kg/ha): 9.0 | herbicidal effect rating, SAGPY (Sagittaria pygmaea, L. [10]; Rate 0.0313 kg/ha): 0.0 | herbicidal effect rating, SAGPY (Sagittaria pygmaea, L. [10]; Rate 0.0625 kg/ha): 0.0 | herbicidal effect rating, SAGPY (Sagittaria pygmaea, L. [10]; Rate 0.1250 kg/ha): 0.0 | herbicidal effect rating, SAGPY (Sagittaria pygmaea, L. [10]; Rate 0.2500 kg/ha): 2.0 | herbicidal effect rating, SAGPY (Sagittaria pygmaea, L. [10]; Rate 0.5000 kg/ha): 4.0 | herbicidal effect rating, ORYSAT (rice tolerance) ([11]; 0.0313 kg/ha): 2.0 | herbicidal effect rating, ORYSAT (rice tolerance) ([11]; 0.0625 kg/ha): 3.0 | herbicidal effect rating, ORYSAT (rice tolerance) ([11]; 0.1250 kg/ha): 3.0 | herbicidal effect rating, ORYSAT (rice tolerance) ([11]; 0.2500 kg/ha): 5.0 | herbicidal effect rating, ORYSAT (rice tolerance) ([11]; 0.5000 kg/ha): 9.0 | herbicidal effect rating, ORYSAT (rice tolerance) ([12]; Rate 0.0313 kg/ha): 2.0 | herbicidal effect rating, ORYSAT (rice tolerance) ([12]; Rate 0.0625 kg/ha): 2.0 | herbicidal effect rating, ORYSAT (rice tolerance) ([12]; Rate 0.1250 kg/ha): 3.0 | herbicidal effect rating, ORYSAT (rice tolerance) ([12]; Rate 0.2500 kg/ha): 7.0 | herbicidal effect rating, ORYSAT (rice tolerance) ([12]; Rate 0.5000 kg/ha): 8.0

Cn1c(C(F)(F)F)cc(=O)n(-c2ccc3snc(-c4ccccc4)c3c2)c1=O [Example 4, 1-Methyl-3-(3-phenyl-1,2-benzisothiazol-5-yl)-6-(trifluoromethyl)-2,4(1H,3H)-pyrimidinedione]
herbicidal effect rating, ECHORC ([1]; 0.0313 kg/ha): 9.0 | herbicidal effect rating, ECHORC ([1]; 0.0625 kg/ha): 9.0 | herbicidal effect rating, ECHORC ([1]; 0.1250 kg/ha): 9.0 | herbicidal effect rating, ECHORC ([1]; 0.2500 kg/ha): 9.0 | herbicidal effect rating, ECHORC ([1]; 0.5000 kg/ha): 9.0 | herbicidal effect rating, CYPIR (Cyperus iria [2]; 0.0313 kg/ha): 9.0 | herbicidal effect rating, CYPIR (Cyperus iria [2]; 0.0625 kg/ha): 9.0 | herbicidal effect rating, CYPIR (Cyperus iria [2]; 0.1250 kg/ha): 9.0 | herbicidal effect rating, CYPIR (Cyperus iria [2]; 0.2500 kg/ha): 9.0 | herbicidal effect rating, CYPIR (Cyperus iria [2]; 0.5000 kg/ha): 9.0 | herbicidal effect rating, CYPSE ([3]; 0.0625 kg/ha): 2.0 | herbicidal effect rating, CYPSE ([3]; 0.1250 kg/ha): 9.0 | herbicidal effect rating, CYPSE ([3]; 0.2500 kg/ha): 9.0 | herbicidal effect rating, CYPSE ([3]; 0.5000 kg/ha): 9.0 | herbicidal effect rating, MOOVA ([4]; 0.0313 kg/ha): 9.0 | herbicidal effect rating, MOOVA ([4]; 0.0625 kg/ha): 9.0 | herbicidal effect rating, MOOVA ([4]; 0.1250 kg/ha): 9.0 | herbicidal effect rating, MOOVA ([4]; 0.2500 kg/ha): 9.0 | herbicidal effect rating, MOOVA ([4]; 0.5000 kg/ha): 9.0 | herbicidal effect rating, SAGPY (Sagittaria pygmaea, L. [5]; 0.0313 kg/ha): 2.0 | herbicidal effect rating, SAGPY (Sagittaria pygmaea, L. [5]; 0.0625 kg/ha): 2.0 | herbicidal effect rating, SAGPY (Sagittaria pygmaea, L. [5]; 0.1250 kg/ha): 6.0 | herbicidal effect rating, SAGPY (Sagittaria pygmaea, L. [5]; 0.2500 kg/ha): 9.0 | herbicidal effect rating, SAGPY (Sagittaria pygmaea, L. [5]; 0.5000 kg/ha): 9.0 | herbicidal effect rating, ECHORC ([6]; Rate 0.0313 kg/ha): 7.0 | herbicidal effect rating, ECHORC ([6]; Rate 0.0625 kg/ha): 9.0 | herbicidal effect rating, ECHORC ([6]; Rate 0.1250 kg/ha): 9.0 | herbicidal effect rating, ECHORC ([6]; Rate 0.2500 kg/ha): 9.0 | herbicidal effect rating, ECHORC ([6]; Rate 0.5000 kg/ha): 9.0 | herbicidal effect rating, CYPIR (Cyperus iria [7]; Rate 0.0313 kg/ha): 8.0 | herbicidal effect rating, CYPIR (Cyperus iria [7]; Rate 0.0625 kg/ha): 9.0 | herbicidal effect rating, CYPIR (Cyperus iria [7]; Rate 0.1250 kg/ha): 9.0 | herbicidal effect rating, CYPIR (Cyperus iria [7]; Rate 0.2500 kg/ha): 9.0 | herbicidal effect rating, CYPIR (Cyperus iria [7]; Rate 0.5000 kg/ha): 9.0 | herbicidal effect rating, CYPSE ([8]; Rate 0.0313 kg/ha): 2.0 | herbicidal effect rating, CYPSE ([8]; Rate 0.0625 kg/ha): 4.0 | herbicidal effect rating, CYPSE ([8]; Rate 0.1250 kg/ha): 7.0 | herbicidal effect rating, CYPSE ([8]; Rate 0.2500 kg/ha): 7.0 | herbicidal effect rating, CYPSE ([8]; Rate 0.5000 kg/ha): 9.0 | herbicidal effect rating, MOOVA ([9]; Rate 0.0313 kg/ha): 8.0 | herbicidal effect rating, MOOVA ([9]; Rate 0.0625 kg/ha): 9.0 | herbicidal effect rating, MOOVA ([9]; Rate 0.1250 kg/ha): 9.0 | herbicidal effect rating, MOOVA ([9]; Rate 0.2500 kg/ha): 9.0 | herbicidal effect rating, MOOVA ([9]; Rate 0.5000 kg/ha): 9.0 | herbicidal effect rating, SAGPY (Sagittaria pygmaea, L. [10]; Rate 0.0313 kg/ha): 3.0 | herbicidal effect rating, SAGPY (Sagittaria pygmaea, L. [10]; Rate 0.0625 kg/ha): 2.0 | herbicidal effect rating, SAGPY (Sagittaria pygmaea, L. [10]; Rate 0.1250 kg/ha): 6.0 | herbicidal effect rating, SAGPY (Sagittaria pygmaea, L. [10]; Rate 0.2500 kg/ha): 9.0 | herbicidal effect rating, SAGPY (Sagittaria pygmaea, L. [10]; Rate 0.5000 kg/ha): 9.0 | herbicidal effect rating, ORYSAT (rice tolerance) ([11]; 0.0313 kg/ha): 4.0 | herbicidal effect rating, ORYSAT (rice tolerance) ([11]; 0.0625 kg/ha): 7.0 | herbicidal effect rating, ORYSAT (rice tolerance) ([11]; 0.1250 kg/ha): 7.0 | herbicidal effect rating, ORYSAT (rice tolerance) ([11]; 0.2500 kg/ha): 8.0 | herbicidal effect rating, ORYSAT (rice tolerance) ([11]; 0.5000 kg/ha): 8.0 | herbicidal effect rating, ORYSAT (rice tolerance) ([12]; Rate 0.0313 kg/ha): 3.0 | herbicidal effect rating, ORYSAT (rice tolerance) ([12]; Rate 0.0625 kg/ha): 4.0 | herbicidal effect rating, ORYSAT (rice tolerance) ([12]; Rate 0.1250 kg/ha): 7.0 | herbicidal effect rating, ORYSAT (rice tolerance) ([12]; Rate 0.2500 kg/ha): 8.0 | herbicidal effect rating, ORYSAT (rice tolerance) ([12]; Rate 0.5000 kg/ha): 8.0
